Read-outs that look alike come from different tables or passages of the source.
What was measured:
Assay type in all cases: cell-based, human
[1] = system: foreskin cells in which senescence was induced by doxorubicin; experiment: CellTiter-Glo cell viability of doxorubicin-induced senescent foreskin cells (Examples 1-2, 10, 11, 13; Tables 4, 63, 65); conditions: for viability at 1.1 µM / viability at […] / viability at 10 µM / viability at 30 µM / viability at 90 µM: Homo sapiens, 72 h, read-out: Survival (%); for removal of senescent cells: excessive concentrations (1 or 20 mM); for viability at 90 µM: 90 μM test compound
Protocol: After 3 days, cell viability was measured using CellTiter-Glo Luminescent Cell Viability Assay (Promega) or light microscopy.

HMGN1 [2] = experiment: HMGN1 ELISA in culture medium of foreskin cells (Examples 10, 11; Tables 62, 63, 64); conditions: Homo sapiens; for activity at 30 µM: read-out: HMGN1; for activity at 90 µM: 90 μM test compound
HMGN1 [3] = experiment: HMGN1 ELISA in culture medium of A549 cancer cells (Example 12, Table 66); conditions: Homo sapiens; for activity at 30 µM: test compound 30 μM
A549 = experiment: CellTiter-Glo cell viability of senescent A549 cancer cells (Example 12, Table 67); conditions: for viability at 1.1 µM / viability at 10 µM / viability at 30 µM / viability at 90 µM: Homo sapiens; for Survival (%): doxorubicin-induced senescent A549 cancer cells
[4] = 1.1 μM test compound, doxorubicin-induced senescent foreskin cells, CellTiter-Glo, 0 μM = 100
[5] = 30 μM test compound, doxorubicin-treated foreskin cells, DMSO = 100
[6] = A549, doxorubicin-induced senescent A549 cells, ELISA, DMSO = 100, read-out: HMGN1 (amount of HMGN1 secreted in the cell culture)
[7] = A549, doxorubicin-induced senescent A549 cancer cells, 1.1 μM test compound, CellTiter-Glo, read-out: Survival (%)
[8] = […] test compound, doxorubicin-induced senescent foreskin cells, CellTiter-Glo, 0 μM = 100
[9] = A549, doxorubicin-induced senescent A549 cancer cells, 10 μM test compound, CellTiter-Glo, read-out: Survival (%)
[10] = 10 μM test compound, doxorubicin-induced senescent foreskin cells, CellTiter-Glo, 0 μM = 100
[11] = 30 μM test compound, doxorubicin-induced senescent foreskin cells, CellTiter-Glo, 0 μM = 100
[12] = A549, doxorubicin-induced senescent A549 cells, test compound 90 μM, ELISA, DMSO = 100, read-out: HMGN1 (amount of HMGN1 secreted in the cell culture)
[13] = A549, doxorubicin-induced senescent A549 cancer cells, 30 μM test compound, CellTiter-Glo, read-out: Survival (%)
[14] = A549, doxorubicin-induced senescent A549 cancer cells, 90 μM test compound, CellTiter-Glo, read-out: Survival (%)
[15] = doxorubicin-induced senescent foreskin cells, CellTiter-Glo, 0 μM = 100
[16] = doxorubicin-treated foreskin cells, DMSO = 100

SMILES | viability at 1.1 µM [1, 4] | activity at 30 µM (HMGN1 [2]; [5]) | activity at 30 µM (HMGN1 [3]; [6]) | viability at 1.1 µM (A549; [7]) | viability at […] [1, 8] | viability at 10 µM (A549; [9]) | viability at 10 µM [1, 10] | also measured
CCCC[C@H]1Cc2c([nH]c3ccccc23)[C@H](c2ccc(C(=O)NC34CC5CC(CC(C5)C3)C4)cc2)N1C(=O)CCl [LX-420] | 0% | 286% | 307% | 10% |  |  |  | 
CC1(C)CC[C@]2(CO)CC[C@]3(C)[C@H](C(=O)C=C4[C@@]5(C)[C@H]6O[C@@]6(C#N)C(=O)C(C)(C)[C@@H]5CC[C@]43C)[C@@H]2C1 [LX-2318] | 78.3% | 264% | 278% | 94.1% | 12.1% | 31.1% |  | 
CCN(CC)C1CCN(Cc2cc(C#CCNc3ccccc3)cc(I)c2O)CC1 [LX-910] | 95.6% | 278% |  | 95.8% | 84.7% | 76.9% | 68.4% | viability at 30 µM [1, 11]: 1.1%; activity at 90 µM (HMGN1 [3]; [12]): 238%; viability at 30 µM (A549; [13]): 47.5%; viability at 90 µM (A549; [14]): 2.7%
C=C(CN(C)C)C(=O)c1ccc2c(c1)OCO2 [LX-919] |  |  |  |  |  |  |  | activity at 30 µM (HMGN1 [2]): 321%; activity at 90 µM (HMGN1 [3]; A549, read-out: HMGN1 (amount of HMGN1 secreted in the cell culture)): 215%
CNC(=O)CC[C@]12CCC(C)(C)C[C@H]1[C@H]1C(=O)C=C3[C@@]4(C)C=C(C#N)C(=O)C(C)(C)[C@@H]4CC[C@@]3(C)[C@]1(C)CC2 [LX-2403] | 38.1% | 319% | 267% | 100% | 15.2% | 3.2% |  | 
O=C(O)Cn1nnc(-c2cc(N3CCC(Oc4cc(F)ccc4Br)CC3)no2)n1 [LX-309] | 52.3% | 283% | 254% | 100% | 12.5% | 92.3% | 4.3% | viability at 30 µM (A549; [13]): 28.1%
CC(=O)N[C@@H](CS)C(=O)O [NAC, N-acetyl cysteine, reference compound] |  |  |  |  |  |  |  | removal of senescent cells [1]: hardly removed
C[C@@H]1C(=O)C(C#N)=C[C@]2(C)c3nc(CCO)n(-c4ccccc4)c3CC[C@@H]12 [LX-2409] | 37.1% | 239% | 281% | 88.5% | 12.8% | 26.4% |  | 
C[C@@H]1C(=O)C(C#N)=C[C@]2(C)c3nn(C)c(-c4ccccc4)c3CC[C@@H]12 [LX-2312] | 48.6% | 293% | 339% | 96.3% | 5.2% | 7.8% |  | 
COC(=O)C[C@]12CCC(C)(C)C[C@H]1[C@H]1C(=O)C=C3[C@@]4(C)C=C(C#N)C(=O)C(C)(C)[C@@H]4CC[C@@]3(C)[C@]1(C)CC2 [LX-2307] | 15.4% | 271% | 279% | 4.8% |  |  |  | 
C=C(CC)C(=O)c1ccc(OCC(=O)O)c(Cl)c1Cl [LX-2603, Ethacrynic acid, reference compound] | 100% |  |  | 98.7% | 103% | 89.1% | 95.8% | viability at 30 µM [1, 11]: 52.6%; viability at 90 µM [1, 15]: 37.8%; activity at 90 µM (HMGN1 [2]; [16]): 218%; activity at 90 µM (HMGN1 [3]; [12]): 245%; viability at 30 µM (A549; [13]): 41.5%; viability at 90 µM (A549; [14]): 1.8%
CC1(C)CC[C@]2(C(=O)NO)CC[C@]3(C)[C@H](C(=O)C=C4[C@@]5(C)C=C(C#N)C(=O)C(C)(C)[C@@H]5CC[C@]43C)[C@@H]2C1 [LX-2309] | 69.7% | 307% | 322% | 112% | 2.7% | 14.9% |  | 
Cc1ccc(Nc2nccc(N(C)c3ccc4c(C)n(C)nc4c3)n2)cc1S(N)(=O)=O [LX-3301, Pazopanib, reference compound] | 100% |  |  | 100% | 99.2% | 85.9% | 67.4% | viability at 30 µM [1, 11]: 39.5%; viability at 90 µM [1, 15]: 2.7%; activity at 90 µM (HMGN1 [2]; [16]): 228%; activity at 90 µM (HMGN1 [3]; [12]): 229%; viability at 30 µM (A549; [13]): 51.9%; viability at 90 µM (A549; [14]): 4.2%
COc1cc(OC)cc(N(CCNC(C)C)c2ccc3ncc(-c4cnn(C)c4)nc3c2)c1 [LX-1903, Erdafitinib, reference compound] | 73.4% |  |  | 93.1% | 50.3% | 12.3% | 22.4% | viability at 30 µM [1, 11]: 11.8%
CC1(CCO)CC2(CCC(C(C)(C)C)CC2)OO1 (stereo not drawn) [LX-603] | 91.7% | 263% | 332% | 94.1% | 74.1% | 53.6% | 51.6% | viability at 30 µM [1, 11]: 16.8%; viability at 30 µM (A549; [13]): 17.5%
OO [H2O2, reference compound] |  |  |  |  |  |  |  | removal of senescent cells [1]: hardly removed
Cc1onc(C(=O)N2CCN(C(c3ccc(Cl)cc3)c3ccc(OCc4cn(CCOCCOCCNc5cccc6c5C(=O)N(C5CCC(=O)NC5=O)C6=O)nn4)cc3)CC2)c1[N+](=O)[O-] (stereo not drawn) [LX-435, 4-((2-(2-(2-(4-((4-((4-chlorophenyl)(4-(5-methyl-4-nitroisooxazol-3-carbonyl)piperazin-1-yl)methyl)phenoxy)methyl)-1H-1,2,3-triazol-1-yl)ethoxy)ethoxy)ethyl)amino)-2-(2,6-dioxopiperidin-3-yl)isoindolin-1,3-dione] |  |  |  |  |  |  |  | Survival (%) [1, 4]: 89.1%; Survival (%) [1, 8]: 5.9%; Survival (%) (A549; 1.1 μM test compound, CellTiter-Glo): 92.1%
CCCC\C=C/C=C/C=C\CCCCCCCC(=O)O [LX-2707, Punicic acid] |  |  |  |  |  |  |  | viability at 1.1 µM [1]: 95.1%; viability at 10 µM [1]: 64.8%; viability at 30 µM [1]: 29%; viability at 1.1 µM (A549; A549, read-out: Survival (%)): 95.1%; viability at 10 µM (A549; A549, read-out: Survival (%)): 64.8%; viability at 30 µM (A549; A549, read-out: Survival (%)): 29%
CN(C)CCn1cc(-c2ccc(F)cc2)c(-n2cccc2)n1 [LX-913] | 97.7% |  |  | 95.1% | 84.4% | 82.6% | 65% | Survival (%) [1, 11]: 14.5%; Survival (%) (A549; 30 μM test compound, CellTiter-Glo): 45.7%; Survival (%) (A549; 90 μM test compound, CellTiter-Glo): 1.9%
